Experimental data as given in PMC9486809, “Exploring the Surface of the Ectodomain of the PD-L1 Immune Checkpoint with Small-Molecule Fragments” (ACS Chemical Biology, 2022).

biological target: T1, PD-L1 (Homo sapiens, UniProt Q9NZQ7); experiment: biochemical; parameters: gene CD274; details: read-out: DSF (°C)
Procedure: Fragments were screened in both techniques as singletons. […] The fragments were tested at a final concentration of 0.1 mM. […] DSF hits were defined as fragments, resulting in an increase or decrease in melting point of PD-L1 by at least 0.5 °C. […] Having the library in hand, we carried out screening using differential scanning fluorimetry and 1D NMR techniques. Previously, the fragment-based approach with a large library of compounds (>13 000) was tested on the PD-L1 V1 domain.[33] […] Therefore, instead of using a large fragment library, we assembled a focused library of fragments containing the biphenyl core extracted from known inhibitors. The obtained fragments were decorated with different substituents to test how these variations will affect the binding of biphenyl. The expression and purification protocol relate to work on PD-L1-short published earlier by us. Briefly, Escherichia coli strain BL21 (DE3) was transformed with a pET-21b plasmid carrying the PD-L1-long gene (amino acids 18–239). The bacteria were cultured in LB at 37 °C until OD600 nm of 0.8 when the recombinant protein production was induced with 1 mM IPTG. The protein expression was carried out at 37 °C for 5 h. Next, bacteria cells were harvested, and the pellet was frozen at −20 °C. […]

T1 sequence (Q9NZQ7 18-239): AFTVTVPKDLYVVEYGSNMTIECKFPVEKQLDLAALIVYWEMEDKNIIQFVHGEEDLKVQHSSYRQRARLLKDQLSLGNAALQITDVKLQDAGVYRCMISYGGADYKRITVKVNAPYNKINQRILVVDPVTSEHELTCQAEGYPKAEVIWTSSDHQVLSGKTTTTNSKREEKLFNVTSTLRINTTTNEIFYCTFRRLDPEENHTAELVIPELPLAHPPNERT

Row | SMILES | ΔTm at 100 µM [°C]
1 | Cc1c(COc2cc(OCc3cccc(C#N)c3)c(CN3C[C@H](O)C[C@@H]3C(=O)O)cc2Cl)cccc1-c1ccc2c(c1)OCCO2 [BMS-1166] | 2.7

biological target: T1, PD-L1; experiment: 1H NMR; KD stated (data not shown); format: binding; parameters: gene CD274; ectodomain, PD-L1-long (amino acids 18–239); details: cited from earlier work

Row | SMILES | Kd [mM]
2 | CN1CCOc2cc(C#N)ccc21 [STD4] | 2.21

biological target: T1, PD-L1; experiment: 1H-15N HMQC NMR, w-AIDA-NMR KD, 1H NMR; format: binding; parameters: gene CD274; ectodomain, PD-L1-long (amino acids 18–239); PD-L1-short in 1H-15N HMQC; details: not given

Row | SMILES | Kd [mM]
3 | OCc1cccc(-c2ccc3c(c2)OCCO3)c1Cl [TAH4] | ~40

biological target: T1, PD-L1; experiment: w-AIDA-NMR KD, 1H-15N HMQC NMR, 1H NMR, DSF; format: binding; parameters: gene CD274; ectodomain, PD-L1-long (amino acids 18–239); PD-L1-short in 1H-15N HMQC; details: not given

Row | SMILES | Kd [mM]
4 | Cc1c(N)cccc1-c1cccc(N)c1C [TAH35] | ~20

biological target: T1, PD-L1; experiment: biochemical; parameters: gene CD274; ectodomain, PD-L1-long (amino acids 18–239); Differential scanning fluorimetry, melting temperature shift of PD-L1 ectodomain (PD-L1-long); details: read-out: DSF (°C); remark: another data set of the same source
Procedure: Fragments were screened in both techniques as singletons. […] The fragments were tested at a final concentration of 0.1 mM. […] DSF hits were defined as fragments, resulting in an increase or decrease in melting point of PD-L1 by at least 0.5 °C. […] Having the library in hand, we carried out screening using differential scanning fluorimetry and 1D NMR techniques. Previously, the fragment-based approach with a large library of compounds (>13 000) was tested on the PD-L1 V1 domain.[33] […] Therefore, instead of using a large fragment library, we assembled a focused library of fragments containing the biphenyl core extracted from known inhibitors. The obtained fragments were decorated with different substituents to test how these variations will affect the binding of biphenyl. The expression and purification protocol relate to work on PD-L1-short published earlier by us. Briefly, Escherichia coli strain BL21 (DE3) was transformed with a pET-21b plasmid carrying the PD-L1-long gene (amino acids 18–239). The bacteria were cultured in LB at 37 °C until OD600 nm of 0.8 when the recombinant protein production was induced with 1 mM IPTG. The protein expression was carried out at 37 °C for 5 h. Next, bacteria cells were harvested, and the pellet was frozen at −20 °C. […] Inclusion bodies were collected by centrifugation, suspended in 1× PBS, and then sonicated to finally collect them again by centrifugation. Then, the inclusion bodies were washed twice with 50 mM Tris-HCl, pH 8.0, containing 200 mM NaCl, 10 mM EDTA, 10 mM 2- mercaptoethanol, and 0.5% Triton X-100, followed by a single wash with the same buffer without Triton X-100.

Row | SMILES | ΔTm at 100 µM [°C]
5 | COC(=O)c1cncc(-c2cccc(CO)c2C)c1 [TAH2] | 0.1
6 | Cc1c(CO)cccc1-c1cccc(CO)c1Br [TAH3] | 0.3
7 | OCc1cccc(-c2ccc3c(c2)OCCO3)c1Cl [TAH4] | 0.5
8 | OCc1cccc(-c2cccnc2)c1Cl [TAH5] | 0.3
9 | Nc1c(CO)cccc1-c1ccc2c(c1)OCCO2 [TAH6] | 0.3
10 | Nc1c(C(=O)O)cccc1-c1ccccc1 [TAH7] | 0.3
11 | COC(=O)c1cccc(-c2ccccc2)c1N [TAH8] | 0.3
12 | COC(=O)c1cccc(-c2ccccc2)c1Br [TAH9] | 0.5
13 | Oc1cccc(-c2cccc(Br)c2)c1 [TAH11] | 0.1
14 | COc1cccc(-c2cccc(O)c2)c1 [TAH14] | 0.5
15 | Cc1c(N)cccc1-c1ccc2c(c1)OCCO2 [TAH16] | 0.5
16 | Cc1c(-c2ccc3c(c2)OCCO3)cccc1N1CCCCC1=O [TAH17] | 0.3
17 | Cc1c(N)cccc1-c1ccccn1 [TAH28] | 0.3
18 | Cc1c(N)cccc1-c1ccc(C#N)cc1 [TAH29] | 0.1
19 | O=C1CCc2cc(-c3ccc4c(c3)OCCO4)ccc21 [TAH30] | 0.1
20 | Cc1c(-c2cccc([N+](=O)[O-])c2C)cccc1[N+](=O)[O-] [TAH34] | 0.3
21 | Cc1c(N)cccc1-c1cccc(N)c1C [TAH35] | -1.2

Row | SMILES | ΔTm at 100 µM [°C]
22 | Cc1c(C#N)cccc1-c1cccc(C#N)c1C [TAH37] | 0.1
23 | Cc1c(/C=C/C#N)cccc1-c1ccc2c(c1)OCCO2 [TAH38] | 0.9
24 | Cc1c(N)cccc1-c1ccccc1 [TAH39] | 0.3
25 | O=C(O)c1cccc(-c2ccccc2)c1Br [TAH40] | 0.3
26 | Oc1cccc(-c2cccc(F)c2)c1 [TAH41] | 1.1
27 | Nc1c(Br)cccc1-c1ccc(CO)cc1 [TAH44] | 0.5
28 | Nc1c(-c2ccc3c(c2)OCCO3)cccc1-c1ccc2c(c1)OCCO2 [TAH46] | 0.5
29 | Cc1c(-c2ccc(CO)cc2)cccc1-c1ccc(CO)cc1 [TAH50] | 0.3
30 | Cc1ccc(-c2ccc3c(c2)OCCO3)c(N)c1 [TAH53] | 0.7
31 | Cc1cccc(N)c1-c1ccc2c(c1)OCCO2 [TAH55] | 0.3
32 | CNc1cccc(-c2ccc3c(c2)OCCO3)c1 [TAH56] | 0.1
33 | Nc1c(CO)cccc1-c1ccncc1 [TAH57] | 0.1
34 | COc1ccc(-c2cccc(CO)c2N)cc1 [TAH58] | 0.1
35 | Nc1c(Br)cccc1-c1ccc2c(c1)OCCO2 [TAH59] | 0.3
36 | Cc1cc(Br)cc(-c2ccc3c(c2)OCCO3)c1 [TAH60] | 0.3
37 | Cc1c(CO)cccc1-c1cccc2c1OCCN2C [TAH61] | -1.1
